We go through 64 compounds from paper PMC5363571 (Oncotarget, 2016).

Structures can show the parent of a compound that is named as a salt. A value given as a limit tells only on which side of the number the result lay.

This assay has as its target USP7 (Homo sapiens, UniProt Q93009). Nature of the assay: biochemical. Also noted: Ub-AMC hydrolysis by recombinant USP7 (20 nM), 30 min pre-incubation, fluorescence read-out. To be noted: read-out: % Inhibition at 50 μM.

Chain of USP7 (Q93009 whole entry): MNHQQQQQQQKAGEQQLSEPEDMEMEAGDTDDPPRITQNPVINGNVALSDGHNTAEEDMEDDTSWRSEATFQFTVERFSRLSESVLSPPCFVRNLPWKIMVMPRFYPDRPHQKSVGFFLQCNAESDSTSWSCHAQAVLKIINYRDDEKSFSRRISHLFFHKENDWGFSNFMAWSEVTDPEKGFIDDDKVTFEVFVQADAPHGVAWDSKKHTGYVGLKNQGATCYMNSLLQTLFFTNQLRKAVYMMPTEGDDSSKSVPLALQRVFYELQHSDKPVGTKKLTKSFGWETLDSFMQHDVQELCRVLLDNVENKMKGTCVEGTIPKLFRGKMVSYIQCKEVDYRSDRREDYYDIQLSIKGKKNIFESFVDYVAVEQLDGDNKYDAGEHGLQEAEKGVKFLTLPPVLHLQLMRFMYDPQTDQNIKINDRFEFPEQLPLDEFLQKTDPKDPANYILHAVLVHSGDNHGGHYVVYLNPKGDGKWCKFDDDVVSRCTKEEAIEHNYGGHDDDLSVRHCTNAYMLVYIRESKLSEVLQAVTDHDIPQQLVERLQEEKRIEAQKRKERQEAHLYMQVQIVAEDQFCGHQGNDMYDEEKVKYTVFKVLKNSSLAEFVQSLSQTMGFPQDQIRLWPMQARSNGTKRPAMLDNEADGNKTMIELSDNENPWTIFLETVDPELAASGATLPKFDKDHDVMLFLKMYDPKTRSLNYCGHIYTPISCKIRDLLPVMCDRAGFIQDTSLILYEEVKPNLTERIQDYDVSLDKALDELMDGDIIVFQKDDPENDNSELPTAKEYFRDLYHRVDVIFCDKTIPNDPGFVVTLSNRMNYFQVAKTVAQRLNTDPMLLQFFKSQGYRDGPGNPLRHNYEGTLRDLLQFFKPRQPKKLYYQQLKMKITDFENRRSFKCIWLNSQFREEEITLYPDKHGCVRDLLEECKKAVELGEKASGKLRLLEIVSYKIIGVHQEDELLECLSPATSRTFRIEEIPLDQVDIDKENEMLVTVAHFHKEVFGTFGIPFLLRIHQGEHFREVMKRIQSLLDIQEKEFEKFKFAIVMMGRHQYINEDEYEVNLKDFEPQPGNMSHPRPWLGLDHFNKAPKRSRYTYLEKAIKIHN

In general, inhibition refers to the percentage by which the read-out fell short of the control. Turning to `CCN(CC)CCCC(C)Nc1c2ccc(Cl)cc2nc2ccc(OC)cc12` (stereo not shown) [Quinacrine 2HCl dihydrate], the inhibition at 50 µM is less than 5%. The figure for `CCOC(=O)[C@H](CCc1ccccc1)N[C@@H](C)C(=O)N1Cc2ccccc2C[C@H]1C(=O)O` [Quinapril HCl] is less than 5%. For `C=C[C@H]1CN2CC[C@H]1C[C@H]2[C@H](O)c1ccnc2ccc(OC)cc12` [Quinine], the inhibition at 50 µM is 16.9%. The figure for `CC(=O)SCC(Cc1ccccc1)C(=O)NCC(=O)OCc1ccccc1` (stereo not shown) [Racecadotril] is less than 5%. The figure for `CCN1CCC[C@H]1CNC(=O)c1c(O)c(Cl)cc(Cl)c1OC` [Raclopride l-tartrate s(-)] is less than 5%.

On to `O=C(c1ccc(OCCN2CCCCC2)cc1)c1c(-c2ccc(O)cc2)sc2cc(O)ccc12` [Raloxifene HCl], for which the inhibition at 50 µM is less than 5%.

`CNC(=C[N+](=O)[O-])NCCSCc1ccc(CN(C)C)o1` [Ranitidine HCl]: the inhibition at 50 µM was less than 5%. To `CO[C@H]1C[C@@H]2CC[C@@H](C)[C@@](O)(O2)C(=O)C(=O)N2CCCC[C@H]2C(=O)O[C@H]([C@H](C)C[C@@H]2CC[C@@H](O)[C@H](OC)C2)CC(=O)[C@H](C)/C=C(\C)[C@@H](O)[C@@H](OC)C(=O)[C@H](C)C[C@H](C)/C=C/C=C/C=C/1C` [Rapamycin] belongs less than 5%. The figure for `CC1=C(/C=C/C(C)=C/C=C/C(C)=C/C(=O)O)C(C)(C)CCC1` [Retinoic acid] is less than 5%; for `CCC[S+]([O-])c1ccc2[nH]c(NC(=O)OC)nc2c1` (stereo not shown) [Ricobendazole] it is less than 5%; for `CO[C@H]1/C=C/O[C@@]2(C)Oc3c(C)c(O)c4c(O)c(c(/C=N/N5CCN(C)CC5)c(O)c4c3C2=O)NC(=O)/C(C)=C\C=C\[C@H](C)[C@H](O)[C@@H](C)[C@@H](O)[C@@H](C)[C@H](OC(C)=O)[C@@H]1C` [Rifampicin] it is less than 5%.

`Nc1nc2ccc(OC(F)(F)F)cc2s1` [Riluzole HCl]: the inhibition at 50 µM was less than 5%.

On to `Cc1nc2n(c(=O)c1CCN1CCC(c3noc4cc(F)ccc34)CC1)CCCC2` [Risperidone], for which the inhibition at 50 µM was less than 5%.

With `COc1ccc(C2CNC(=O)C2)cc1OC1CCCC1` (stereo not shown) [Rolipram], the inhibition at 50 µM was less than 5%.

Take `CN(CCOc1ccc(CC2SC(=O)NC2=O)cc1)c1ccccn1` (stereo not shown) [Rosiglitazone maleate]: the inhibition at 50 µM was less than 5%. With `CC(C)(C)NCC(O)c1ccc(O)c(CO)c1` (stereo not shown) [Salbutamol sulfate], the inhibition at 50 µM is less than 5%. The figure for `OCc1cc(C(O)CNCCCCCCOCCCCc2ccccc2)ccc1O` (stereo not shown) [Salmeterol] is less than 5%; for `CN1[C@@H]2C[C@@H](OC(=O)[C@H](CO)c3ccccc3)C[C@H]1[C@@H]1O[C@@H]12` [Scopolamine HBr] it is less than 5%. The figure for `CCCC[N+]1(C)[C@@H]2C[C@@H](OC(=O)[C@H](CO)c3ccccc3)C[C@H]1[C@@H]1O[C@@H]12` (stereo partly shown) [Scopolamine n-butylbromide] is less than 5%; for `Cc1ncc([N+](=O)[O-])n1CC(C)O` (stereo not shown) [Secnidazole] it is less than 5%; for `CC1(C)CC[C@]2(C(=O)O)CCC3=C([C@@H](CCl)C[C@@H]4[C@@]5(C)C[C@H](O)[C@H](O)[C@@](C)(C(=O)O)[C@@H]5CC[C@@]34C)[C@@H]2C1` [Senegenin] it is less than 5%. The figure for `CC(C)CC(N(C)C)C1(c2ccc(Cl)cc2)CCC1` (stereo not shown) [Sibutramine HCl] is less than 5%. Consider `CN/C(=N\c1ccc(C2=NNC(=O)CC2C)cc1)NC#N` (stereo not shown) [Siguazodan], for which the inhibition at 50 µM was less than 5%. The figure for `CCC(C)(C)C(=O)O[C@H]1C[C@@H](C)C=C2C=C[C@H](C)[C@H](CC[C@@H]3C[C@@H](O)CC(=O)O3)[C@H]21` [Simvastatin] is less than 5%.

Turning to `O=C(O)Cc1ccccc1` [Sodium phenylacetate], the inhibition at 50 µM was less than 5%.

Consider `O=C(O)CCCc1ccccc1` [Sodium phenylbutyrate], for which the inhibition at 50 µM is less than 5%. To `CC(C)NCC(O)c1ccc(NS(C)(=O)=O)cc1` (stereo not shown) [Sotalol HCl] belongs less than 5%; to `C[C@@H]1CN(c2c(F)c(N)c3c(=O)c(C(=O)O)cn(C4CC4)c3c2F)C[C@H](C)N1` [Sparfloxacin], less than 5%; to `CN[C@@H]1[C@H](O)[C@H](NC)[C@H]2O[C@@]3(O)C(=O)C[C@@H](C)O[C@H]3O[C@@H]2[C@H]1O` [Spectinomycin], less than 5%. To `O=C(CCCN1CCC2(CC1)C(=O)NCN2c1ccccc1)c1ccc(F)cc1` [Spiperone] belongs less than 5%; to `CC(=O)S[C@@H]1CC2=CC(=O)CC[C@]2(C)[C@H]2CC[C@@]3(C)[C@@H](CC[C@@]34CCC(=O)O4)[C@H]12` [Spironolactone], 36.4%. To `C[C@]12Cc3c[nH]nc3C[C@@H]1CC[C@@H]1[C@@H]2CC[C@@]2(C)[C@H]1CC[C@]2(C)O` [Stanozolol] belongs less than 5%; to `CN[C@@H]1[C@H](O[C@H]2[C@H](O[C@H]3[C@H](O)[C@@H](O)[C@H](N=C(N)N)[C@@H](O)[C@@H]3N=C(N)N)O[C@@H](C)[C@]2(O)C=O)O[C@@H](CO)[C@H](O)[C@H]1O` [Streptomycin sulfate], less than 5%. As for `O=C1C[C@@H]2OCC=C3CN4CC[C@]56c7ccccc7N1[C@H]5[C@H]2[C@H]3C[C@H]46` [Strychnine HCl], the inhibition at 50 µM was less than 5%. To `C[N+](C)(C)CCOC(=O)CCC(=O)OCC[N+](C)(C)C` [Succinylcholine] belongs less than 5%; to `CC1(C)[C@H](C(=O)O)N2C(=O)C[C@H]2S1(=O)=O` [Sulbactam], less than 5%. With `Nc1ccc(S(=O)(=O)Nc2ncccn2)cc1` [Sulfadiazine], the inhibition at 50 µM was less than 5%.

Take `COc1cc(NS(=O)(=O)c2ccc(N)cc2)nc(OC)n1` [Sulfadimethoxine]: the inhibition at 50 µM was less than 5%.

With `COc1ncnc(NS(=O)(=O)c2ccc(N)cc2)c1OC` [Sulfadoxine], the inhibition at 50 µM is less than 5%.

`O=C(O)c1cc(/N=N/c2ccc(S(=O)(=O)Nc3ccccn3)cc2)ccc1O` [Sulfasalazine]: the inhibition at 50 µM was less than 5%. `CCN1CCC[C@H]1CNC(=O)c1cc(S(N)(=O)=O)ccc1OC` [Sulpiride s (-)]: the inhibition at 50 µM is less than 5%. The figure for `Cc1ccc(C(=O)Nc2ccc(S(=O)(=O)O)c3cc(S(=O)(=O)O)cc(S(=O)(=O)O)c23)cc1NC(=O)c1cccc(NC(=O)Nc2cccc(C(=O)Nc3cc(C(=O)Nc4ccc(S(=O)(=O)O)c5cc(S(=O)(=O)O)cc(S(=O)(=O)O)c45)ccc3C)c2)c1` [Suramin sodium] is less than 5%.

As to `CC/C(=C(\c1ccccc1)c1ccc(OCCN(C)C)cc1)c1ccccc1` [Tamoxifen citrate], the inhibition at 50 µM was less than 5%.

On to `CC(=O)O[C@H]1C(=O)[C@@]2(C)[C@H]([C@H](OC(=O)c3ccccc3)[C@]3(O)C[C@H](OC(=O)[C@H](O)[C@@H](NC(=O)c4ccccc4)c4ccccc4)C(C)=C1C3(C)C)[C@]1(OC(C)=O)CO[C@@H]1C[C@@H]2O` [Taxol], for which the inhibition at 50 µM worked out at 26.9%. The figure for `Cc1scc2c1N(C(=O)CN1CCN(C)CC1)c1ccccc1NC2=O` [Telenzepine 2HCl] is less than 5%; for `CN(C/C=C/C#CC(C)(C)C)Cc1cccc2ccccc12` [Terbinafine HCl] it is 8.6%. On to `CS(=O)(=O)c1ccc([C@H](O)[C@@H](COC(=O)CN)NC(=O)C(Cl)Cl)cc1` [Thiamphenicol glycinate], for which the inhibition at 50 µM was less than 5%. Take `CSc1ccc2c(c1)N(CCC1CCCCN1C)c1ccccc1S2` (stereo not shown) [Thioridazine HCl]: the inhibition at 50 µM is less than 5%. The figure for `C/N=C(/NC#N)NCCSCc1csc(NC(=N)N)n1` [Tiotidine] is 11.6%; for `C[N+]1(C)[C@@H]2C[C@@H](OC(=O)C(O)(c3cccs3)c3cccs3)C[C@H]1[C@@H]1O[C@@H]12` [Tiotropium Br] it is less than 5%; for `CCCCNC(=O)NS(=O)(=O)c1ccc(C)cc1` [Tolbutamide] it is less than 5%.

Regarding `Cc1ccc(C(=O)c2cc(O)c(O)c([N+](=O)[O-])c2)cc1` [Tolcapone], the inhibition at 50 µM is 28.6%. The figure for `Cc1ccc(/C(=C\CN2CCCC2)c2ccccn2)cc1` [Trans-triprolidine HCl] is less than 5%; for `COc1cc2c(cc1OC)-c1c/c(=N\c3c(C)cc(C)cc3C)n(C)c(=O)n1CC2` [Trequinsin HCl] it is less than 5%; for `CN1CCN(CCCN2c3ccccc3Sc3ccc(C(F)(F)F)cc32)CC1` [Trifluoperazine 2HCl] it is less than 5%. `O=C(CCCN1CCC(O)(c2cccc(C(F)(F)F)c2)CC1)c1ccc(F)cc1` [Trifluperidol 2HCl]: the inhibition at 50 µM is less than 5%. To `Cc1c(C)c2c(c(C)c1O)CCC(C)(COc1ccc(CC3SC(=O)NC3=O)cc1)O2` (stereo not shown) [Troglitazone] belongs 5.3%; to `CO[C@H]1C[C@H](O[C@H]2[C@H](C)[C@@H](O[C@@H]3O[C@H](C)C[C@H](N(C)C)[C@H]3OC(C)=O)[C@@H](C)C[C@@]3(CO3)C(=O)[C@H](C)[C@@H](OC(C)=O)[C@@H](C)[C@@H](C)OC(=O)[C@@H]2C)O[C@@H](C)[C@@H]1OC(C)=O` [Troleandomycin], less than 5%; to `CC(C)(C)NCC(O)c1ccccc1Cl` (stereo not shown) [Tulobuterol], 16.5%. To `C[C@H]1[C@H](C)CC[C@]2(C(=O)O)CC[C@]3(C)C(=CC[C@@H]4[C@@]5(C)CC[C@H](O)C(C)(C)[C@@H]5CC[C@]43C)[C@H]12` [Uosolic acid] belongs 75.2%; to `CCCc1nc(C)c2c(=O)nc(-c3cc(S(=O)(=O)N4CCN(CC)CC4)ccc3OCC)[nH]n12` [Vardenafil], less than 5%. As for `Clc1ccc(Nc2nnc(Cc3ccncc3)c3ccccc23)cc1` [Vatalanib], the inhibition at 50 µM was less than 5%.

Regarding `COc1ccc(C(CN(C)C)C2(O)CCCCC2)cc1` (stereo not shown) [Venlafaxine HCl], the inhibition at 50 µM was less than 5%. The figure for `COc1ccc(CCN(C)CCCC(C#N)(c2ccc(OC)c(OC)c2)C(C)C)cc1OC` (stereo not shown) [Verapamil] is less than 5%.
